Results on 18 compounds are retold here after US10029986B2, “Alkynyl pyridine-substituted amide compound and pesticide” (NISSAN CHEMICAL INDUSTRIES, LTD., priority 2014, dated 2018).

Holding throughout (assay type): in vivo
One experiment has as its system Botrytis cinerea. In words: Test on the preventive effect against cucumber gray mold (spore inoculation). Conditions: 72 h, test solution A 500 ppm, 5 ml per pot, cucumber cut leaves, conidium inoculation, 3 days at 20° C. Summed up: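 Cotyledon-stage cucumber (Sagami Hanjiro) sprayed with 500 ppm compound from emulsifiable concentrate; detached treated leaves inoculated with B. cinerea conidia in PDA (1:1). After 3 days at 20 °C, humid, lesion proportion gave control value; duplicate test.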

In experiment [1] the test system is Blumeria graminis f. sp. tritici. The experiment is described as follows: Test on the preventive effect against wheat powdery mildew. Conditions: 168 h, test solution A 500 ppm, 5 ml per pot, wheat 1.3-leaf stage, 7 days after inoculation. Summed up:
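Compounds formulated as 20 wt % emulsifiable concentrates and diluted with water to 500 ppm; 5 ml per pot applied to wheat (Norin 61) at the 1.3-leaf stage. Conidia inoculated one day later in a 20° C greenhouse; lesion proportion scored after 7 days as control value, in duplicate.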

Experiment [2] relates to Phaeosphaeria nodorum (Synonym: Septoria nodorum). In words: Test on the preventive effect against wheat glume blotch. Conditions: Parastagonospora nodorum, 144 h; test solution A 500 ppm, 5 ml per pot, wheat 1.3-leaf stage, 2 days inoculation chamber then 6 days at 20° C. Summed up: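 Wheat (cv. Haruyutaka) at 1.3-leaf stage sprayed with compound at 500 ppm as diluted emulsifiable concentrate, then inoculated one day later with conidial suspension. Kept 2 days at 20° C and 100% RH, then 6 days in a greenhouse at 20° C. Control value derived from lesion proportion on inoculated leaves; duplicate.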

The next experiment concerns Puccinia recondita. The experiment is described as follows: Test on the preventive effect against wheat leaf rust. As to conditions: 216 h, test solution A 500 ppm, 5 ml per pot, wheat 1.3-leaf stage, 1 day inoculation chamber then 8 days at 20° C. How it is done: Compounds of the present invention were dissolved in a solvent for emulsion (a mixture of Sorpol (registered trademark) 3005XL (manufactured by Toho Chemical Industry Co., Ltd.): N-methylpyrrolidone: Solvesso (registered trademark) 200 (manufactured by ExxonMobil Chemical) in a ratio of 1:5:2) to prepare 20 wt % emulsifiable concentrates. Then, distilled water was added to dilute the emulsifiable concentrates to the prescribed concentration (500 ppm), and the obtained solutions were used in the following the Test Examples 1 to 8. Wheat (varieties: Norin 61) was seeded in 90 cm^3 plastic pot, and at 1.3-leaf stage, 5 ml per pot of test solution A of the compounds of the present invention was applied. One day after treatment, a suspension of spores of Puccinia recondita was sprayed to the wheat, and the pot was left in the inoculation chamber at 20° C. under humidity of 100% RH for 1 day. Thereafter, the pot was placed in an air-conditioned greenhouse (20° C.) for 8 days. The proportion of the formed lesion in the inoculated leaves were counted to calculate the control value in accordance with the same formula as in the Test Example 1. The test was carried out in duplicate.

Experiment [3] relates to Southern root-knot nematode (Meloidogyne incognita). In words: Test on the preventive effect against Southern root-knot nematode (garden balsam seedlings). Conditions: 504 h, test solution B 100 ppm, 1 ml per seedling to base of garden balsam seedlings, 3 weeks in greenhouse, read-out: efficacy (root knot damage degree relative to non-treated plot). How it is done:
Compounds of the present invention were dissolved in dimethyl sulfoxide to prepare 1 wt % solutions. Then, distilled water was added to dilute the solutions to the prescribed concentration (100 ppm), and the obtained solutions were used in the following the Test Examples 9 to 12. 1 ml per seedling of test solution B of the compounds of the present invention was treated to the bases of garden balsam seedlings (about 2 weeks after budding) planted in a cell tray of which each cell was filled with 10 g of soil. 1 hour after the application, 1 ml per cell of water containing Southern root-knot nematode (Meloidogyne incognita) 2 L larvae (100 larvae of 2 L/1 ml) was applied to the base. The tray was placed in a greenhouse for 3 weeks, and the degree of root knot on the root was determined in accordance with the following damage index and the damage degree to calculate the efficacy (%) relative to the non-treated plot in accordance with the following formula. • 0: No knot formation was observed. • 1: Knot formations were observed on parts of the root system. • 2: Knot formations were observed on the entire root system. • 3: Large knot formations were observed. • 4: Large knot formations were observed on the entire root system. [Damage degree]=[Σ(damage index×number of each damaged indexed seedling)/(4×number of seedlings investigated)]×100 Efficacy (%)=[1−(damage degree in treated plot/damage degree in non-treated plot)]×100

Where only a bound is given, the exact number is not on record here.

Take `O=C(NCC(F)(F)c1ncc(C#CC2CC2)cc1Cl)c1cccnc1C(F)F` [3-003, N-[2-[3-chloro-5-(cyclopropylethynyl)pyridin-2-yl]-2,2-difluoroethyl]-2-(difluoromethyl)nicotinamide]: the pest or weed control at 500 µg/mL (in the experiment on Botrytis cinerea; in experiment [1]; in experiment [2]; with Puccinia recondita) was no less than 70% throughout. The pest or weed control at 100 µg/mL in experiment [3] was no less than 50%.
Turning to `COC(=O)C(CNC(=O)c1cn(C)nc1C(F)F)c1ncc(C#CC2CC2)cc1Cl` (stereo not drawn) [8-022, 2-[3-chloro-5-(cyclopropylethynyl)pyridin-2-yl]-3-(3-difluoromethyl-1-methyl-1H-pyrazole-4-carboxamide)propionic acid methyl ester], the pest or weed control at 500 µg/mL (in the experiment on Botrytis cinerea; in experiment [1]; in experiment [2]; in the experiment with Puccinia recondita) was no less than 70% throughout.
As for `COC(c1ncc(C#CC2CC2)cc1Cl)C(C)NC(=O)c1cccnc1C(F)F` (stereo not drawn) [3-021], the pest or weed control at 500 µg/mL (with Botrytis cinerea; in experiment [1]; in experiment [2]; in the experiment with Puccinia recondita) was no less than 70% each time. Also, the pest or weed control at 100 µg/mL in experiment [3] was no less than 50%.
Take `CC(Cc1ncc(C#Cc2ccccc2)cc1Cl)NC(=O)c1cn(C)nc1C(F)F` (stereo not drawn) [8-027]: the pest or weed control at 500 µg/mL (in the experiment with Botrytis cinerea; in experiment [1]; in experiment [2]; in the experiment on Puccinia recondita) was no less than 70% in each case.
As to `O=C(NCC(c1ncc(C#CC2CC2)cc1Cl)C1CC1)c1cccnc1C(F)F` (stereo not drawn) [3-008], the pest or weed control at 500 µg/mL (with Botrytis cinerea; in experiment [1]; in experiment [2]; in the experiment on Puccinia recondita) was no less than 70% in each case. In experiment [3], the pest or weed control at 100 µg/mL is no less than 50%.
As to `CC(NC(=O)c1ccccc1C(F)(F)F)C(OCc1ccccc1)c1ncc(C#CC2CC2)cc1Cl` (stereo not drawn) [1-031, N-[2-benzyloxy-2-[3-chloro-5-(cyclopropylethynyl)pyridin-2-yl]-1-methylethyl]-2-(trifluoromethyl)benzamide], the pest or weed control at 500 µg/mL (in the experiment on Botrytis cinerea; in experiment [1]; in experiment [2]; with Puccinia recondita) was no less than 70% throughout.
In the case of `Cn1cc(C(=O)NCC(c2ncc(C#CC3CC3)cc2Cl)C2CC2)c(C(F)F)n1` (stereo not drawn) [8-009], the pest or weed control at 500 µg/mL (in the experiment with Botrytis cinerea; in experiment [1]; in experiment [2]; in the experiment with Puccinia recondita) was no less than 70% in each case. The pest or weed control at 100 µg/mL in experiment [3] was no less than 50%.
Regarding `CSC(CNC(=O)c1cccnc1C(F)F)c1ncc(C#CC2CC2)cc1Cl` (stereo not drawn) [3-020], the pest or weed control at 500 µg/mL (in the experiment on Botrytis cinerea; in experiment [1]; in experiment [2]; in the experiment on Puccinia recondita) was no less than 70% throughout. In addition, in experiment [3], the pest or weed control at 100 µg/mL is no less than 50%.
As for `O=C(NCCc1ncc(C#CC2CC2)cc1Cl)c1cccnc1C(F)F` [3-001, N-[2-[3-chloro-5-(cyclopropylethynyl)pyridin-2-yl]ethyl]-2-(difluoromethyl)nicotinamide], the pest or weed control at 500 µg/mL (with Botrytis cinerea; in experiment [1]; in experiment [2]; in the experiment on Puccinia recondita) was no less than 70% throughout. Also, the pest or weed control at 100 µg/mL in experiment [3] is no less than 50%.
For the compound `Cn1cc(C(=O)NCCc2ncc(C#CC(C)(C)C)cc2Cl)c(C(F)F)n1` [8-002], the pest or weed control at 500 µg/mL (in the experiment on Botrytis cinerea; in experiment [1]; in experiment [2]; with Puccinia recondita) was no less than 70% each time. In experiment [3], the pest or weed control at 100 µg/mL was no less than 50%.
`CC(C)(C)C#Cc1cnc(CCNC(=O)c2cccnc2C(F)F)c(Cl)c1` [3-002]: the pest or weed control at 500 µg/mL (with Botrytis cinerea; in experiment [1]; in experiment [2]; with Puccinia recondita) was no less than 70% throughout. In experiment [3], the pest or weed control at 100 µg/mL is no less than 50%.
On to `COC(c1ncc(C#CC2CC2)cc1Cl)C(C)NC(=O)c1nccnc1C(F)(F)F` (stereo not drawn) [4-004], for which the pest or weed control at 500 µg/mL (in the experiment on Botrytis cinerea; in experiment [1]; in experiment [2]; with Puccinia recondita) was no less than 70% each time.
For the compound `Cn1cc(C(=O)NCCc2ncc(C#CC3CC3)cc2Cl)c(C(F)F)n1` [8-001], the pest or weed control at 500 µg/mL (with Botrytis cinerea; in experiment [1]; in experiment [2]; in the experiment with Puccinia recondita) was no less than 70% in each case. Further, in experiment [3], the pest or weed control at 100 µg/mL was no less than 50%.
For `COC(c1ncc(C#CC(C)(C)C)cc1Cl)C(C)NC(=O)c1ccccc1C(F)(F)F` (stereo not drawn) [1-025], the pest or weed control at 500 µg/mL (in the experiment with Botrytis cinerea; in experiment [1]; in experiment [2]; in the experiment on Puccinia recondita) was no less than 70% throughout. In addition, in experiment [3], the pest or weed control at 100 µg/mL was no less than 50%.
With `COC(c1ncc(C#CC2CC2)cc1Cl)C(C)NC(=O)c1ccccc1C(F)(F)F` (stereo not drawn) [1-024], the pest or weed control at 500 µg/mL (with Botrytis cinerea; in experiment [1]; in experiment [2]; in the experiment with Puccinia recondita) was no less than 70% in each case. Also, the pest or weed control at 100 µg/mL in experiment [3] is no less than 50%.
With `CC(CNC(=O)c1cn(C)nc1C(F)F)c1ncc(C#CC2CC2)cc1Cl` (stereo not drawn) [8-007], the pest or weed control at 500 µg/mL (with Botrytis cinerea; in experiment [1]; in experiment [2]; with Puccinia recondita) was no less than 70% in each case. Moreover, the pest or weed control at 100 µg/mL in experiment [3] was no less than 50%.
Turning to `CC(Cc1ncc(C#CC2CC2)cc1Cl)NC(=O)c1cn(C)nc1C(F)F` (stereo not drawn) [8-024, N-[2-[3-chloro-5-(cyclopropylethynyl)pyridin-2-yl]-1-methylethyl]-3-difluoromethyl-1-methyl-1H-pyrazole-4-carboxamide], the pest or weed control at 500 µg/mL (with Botrytis cinerea; in experiment [1]; in experiment [2]; with Puccinia recondita) was no less than 70% throughout.
For `C=C(CNC(=O)c1cn(C)nc1C(F)F)c1ncc(C#CC2CC2)cc1Cl` [8-011, N-[2-[3-chloro-5-(cyclopropylethynyl)pyridin-2-yl]-2-propenyl]-3-difluoromethyl-1-methyl-1H-pyrazole-4-carboxamide], the pest or weed control at 500 µg/mL (with Botrytis cinerea; in experiment [1]; in experiment [2]; in the experiment on Puccinia recondita) was no less than 70% in each case.
